# Test results published in patent US7973069B2 (PTC Therapeutics, Inc., priority 2004, dated 2011).
row,melting point [°C],SMILES
1,154 to 156,"C[C@@H](OC(=O)Nc1ccc(-c2c(C#N)c3ccc(Oc4ncccn4)cc3n2C2CC2)cc1)C1CC1 [Compound 2217, (R)-{4-[3-cyano-1-cyclopropyl-6-(pyrimidin-2-yloxy)-1H-indol-2-yl]-phenyl}-carbamic acid 1-cyclopropylethyl ester]"
2,118 to 120,"C[C@@H](OC(=O)Nc1ccc(-c2c(C#N)c3ccc(-c4ccccn4)cc3n2C2CCC2)cc1)C1CC1 [Compound 2417, [4-(3-cyano-1-cyclobutyl-6-pyridin-2-yl-1H-indol-2-yl)-phenyl]-carbamic acid 1-cyclopropyl-ethyl ester]"
3,212 to 214,"C[C@@H](OC(=O)Nc1ccc(-c2c(C#N)c3ccc(-c4ncccn4)cc3n2C2CCC2)cc1)C1CC1 [Compound 2419, [4-(3-cyano-1-cyclobutyl-6-pyrimidin-2-yl-1H-indol-2-yl)-phenyl]-carbamic acid 1-cyclopropyl-ethyl ester]"
4,206 to 208,"CCCS(=O)(=O)Nc1ccc(-c2c(C#N)c3ccc(OC(F)F)cc3n2CC)cc1 [Compound 928, Propane-1-sulfonic acid [4-(3-cyano-6-difluoromethoxy-1-ethyl-1H-indoel-2-yl)-phenyl]-amide]"
5,194 to 196,"C[C@@H](OC(=O)Nc1ccc(-c2c(C#N)c3ccc(Oc4ncccn4)cc3n2C2CCC2)cc1)C1CC1 [Compound 2210, (R)-{4-[3-cyano-1-cyclobutyl-6-(pyrimidin-2-yloxy)-1H-indol-2-yl]-phenyl}carbamic acid 1-cyclopropyl-ethyl ester]"
6,215 to 217,"CC(C)Nc1ccc(-c2c(C#N)c3ccc(Oc4ncccn4)cc3n2C2CC2)cc1 [Compound 2434, 1-cyclopropyl-2-(4-isopropylamino-phenyl)-6-(pyrimidin-2-yloxy)-1H-indole-3-carbonitrile]"
